Consider 2 compounds from patent publication US5151264A, “Particulate vector useful in particular for the transport of molecules with biological activity and process for its preparation” (priority 1988, dated 1992).

The subject of data set [1] is Bacillus subtilis. As to the kind of experiment: Inhibition of Bacillus subtilis in agar medium / Petri dish (agar cylinders method). It counts as cell-based. Here is the method:
(§1) Butirosin, like erythromycin, is determined by measuring the lysis zones (agar cylinders method) in an agar medium (bioMerieux) inoculated with 1000 cfu/ml of Bacillus subtilis and incubated at 37° C. for 18 hours. The bioMerieux agar medium consists of 6 g of bio-Gelytone, 3 g of yeast extract, 1.5 g of beef extract and 15 g of agar per 1 l of distilled water. The pH of the medium is adjusted to 9.
(§2) The serum samples are deposited in the wells made in the agar medium (30 μl/well). Reference solutions representing known amounts of antibiotic are also deposited in the dish.

A short description of data set [2]: Pharmacokinetics in plasma of free and encapsulated antibiotics in rabbits. It counts as in vivo, male rabbits of the "White New Zealand" type.
Description: In order to evaluate the influence of the encapsulation on the pharmacokinetics of two antibiotics, butirosin according to Example 6 and erythromycin according to Example 13, we carried out the determination in plasma as a function of time for these two antibiotics after administration in the free form and in the encapsulated form.
The injections are given subcutaneously and intravenously to male rabbits of the "White New Zealand" type weighing approximately 3 kg. The samples are taken at the lateral vein of the ear in amounts of 200 μl of blood/sample. The blood is immediately centrifuged at 8000 rpm for 15 min. The serum is withdrawn and stored at 4° C. until used.
as §1, §2
The amounts injected are 1 ml containing 9 mg of butirosin in the free or encapsulated form.
4 ml of a physiological solution containing 5 mg of butirosin either in the free form or encapsulated in 100 mg of BVSM are injected. The solution is prepared from 8 g/l NaCl, 0.2 g/l KCl, 0.1 g/l anhydrous CaC12 (sic), 0.1 g/l MgCl2, 3.18 g/l Na2 HPO4 and 0.2 g/l KH2 PO4, adjusted to pH 7.4.
The injections are made slowly in the external vein of the ear after vasodilatation with warm water and disinfection with ethanol at […].
The amounts injected are 1 ml containing 15 mg of free or encapsulated erythromycin. For reasons of solubility, free erythromycin is dissolved in a water/ethanol (85:15) mixture.

The mark [3] stands for this setting: Bacillus subtilis, 18 h, read-out: Diameter (standard range).

Regarding butirosin, the “Diameter (standard range)” value in data set [1] (0.5 μg/ml) came out at 14 mm; in data set [1] (1 μg/ml) it was 17 mm; in data set [1] (2 μg/ml), 19 mm; in data set [1] (5 μg/ml) it was 22 mm; in data set [1] (10 μg/ml), 24 mm; in data set [1] (20 μg/ml), 26 mm. The “Diameter (standard range)” value in data set [1] (50 μg/ml) came out at 28 mm. Moreover, the “diffusion into the plasma and elimination” value in data set [2] (rabbit, in vivo, iv) was “diffuses very rapidly into the plasma and is also eliminated very rapidly”. Moreover, the “diffusion in the plasma / plasma level” value in data set [2] (rabbit, in vivo, sc) is recorded as “diffuses very rapidly in the plasma”. Also, in data set [2] (rabbit, in vivo, sc), the “time after which eliminated” value is 6 h.
Turning to `CC[C@H]1OC(=O)[C@H](C)[C@@H](O[C@H]2C[C@@](C)(OC)[C@@H](O)[C@H](C)O2)[C@H](C)[C@@H](O[C@@H]2O[C@H](C)C[C@H](N(C)C)[C@H]2O)[C@](C)(O)C[C@@H](C)C(=O)[C@H](C)[C@@H](O)[C@]1(C)O` [Erythromycin, erythromycin], in data set [1] (setting [3]), the zone of inhibition at 10 µg/mL was 26 mm, the zone of inhibition at 25 µg/mL was found to be 29 mm, the zone of inhibition at 100 µg/mL was 31 mm and the zone of inhibition at 250 µg/mL was 33 mm. Besides, the zone of inhibition at 1000 µg/mL in data set [1] (setting [3]) was 37 mm. In addition, the “diffusion in the plasma / plasma level” value in data set [2] (erythromycin) is reported as “diffuses relatively slowly in the plasma”. Further, in data set [2] (erythromycin, listed as Free erythromycin), the “diffusion in the plasma / plasma level” value is “higher initial level to be achieved in the plasma than the encapsulated form”.
